Source: BindingDB's records for doi:10.1016/0960-894X(96)00211-9 (1996)
pIC50: −log10 of the molar value. Structures can show the parent of a compound that is named as a salt.

test: Inhibition of Endothelin-converting enzyme of guinea pig lung membrane

| SMILES | pIC50 |
| --- | --- |
| CC(C)CC(CP(O)(O)=C(Cc1ccc2ccccc2c1)NC(=O)[C@H](CCCCN)NS(C)(=O)=O)C(=O)N[C@@H](Cc1c[nH]c2ccccc12)C(=O)O (stereo partly drawn) [(S)-2-(2-{[1-((S)-6-Amino-2-methanesulfonylamino-hexanoylamino)-2-naphthalen-2-yl-ethyl]-hydroxy-phosphinoylmethyl}-4-methyl-pentanoylamino)-3-(1H-indol-3-yl)-propionic acid; Disodium salt] | 7.19 |
| CC(C)CC(CP(O)(O)=C(Cc1ccccc1)NC(=O)[C@H](CC(C)C)NC(=O)OCc1ccccc1)C(=O)N[C@@H](Cc1c[nH]c2ccccc12)C(=O)O (stereo partly drawn) [(S)-2-(2-{[1-((S)-2-Benzyloxycarbonylamino-4-methyl-pentanoylamino)-2-phenyl-ethyl]-hydroxy-phosphinoylmethyl}-4-methyl-pentanoylamino)-3-(1H-indol-3-yl)-propionic acid; Disodium salt] | 6.80 |
| CC(C)C(CP(O)(O)=C(Cc1ccc2ccccc2c1)NC(=O)[C@H](CCCCNC(=O)OCc1ccccc1)NS(C)(=O)=O)C(=O)N[C@@H](Cc1c[nH]c2ccccc12)C(=O)O (stereo partly drawn) [(S)-2-(2-{[1-((S)-6-Benzyloxycarbonylamino-2-methanesulfonylamino-hexanoylamino)-2-naphthalen-2-yl-ethyl]-hydroxy-phosphinoylmethyl}-3-methyl-butyrylamino)-3-(1H-indol-3-yl)-propionic acid; Disodium salt] | 6.10 |

The next lines start with the values.

| pIC50 | SMILES |
| --- | --- |
| 6.41 | CC(C)C(CP(O)(O)=C(Cc1ccccc1)NC(=O)[C@H](CCCCNC(=O)OCc1ccccc1)NS(C)(=O)=O)C(=O)N[C@@H](Cc1c[nH]c2ccccc12)C(=O)O (stereo partly drawn) [(S)-2-(2-{[1-((S)-6-Benzyloxycarbonylamino-2-methanesulfonylamino-hexanoylamino)-2-phenyl-ethyl]-hydroxy-phosphinoylmethyl}-3-methyl-butyrylamino)-3-(1H-indol-3-yl)-propionic acid; Disodium salt] |
| 7.40 | CC(C)CC(NC(=O)[C@H](CCCCNC(=O)OCc1ccccc1)NS(C)(=O)=O)=P(O)(O)CC(CC(C)C)C(=O)N[C@@H](Cc1c[nH]c2ccccc12)C(=O)O (stereo partly drawn) [(S)-2-(2-{[1-((S)-6-Benzyloxycarbonylamino-2-methanesulfonylamino-hexanoylamino)-3-methyl-butyl]-hydroxy-phosphinoylmethyl}-4-methyl-pentanoylamino)-3-(1H-indol-3-yl)-propionic acid; Disodium salt] |

test: Compound was tested for inhibitory activity against Endothelin-converting enzyme isolated from guinea pig lung membrane.

| SMILES | pIC50 |
| --- | --- |
| CC(C)CC(CP(O)(O)=C(Cc1ccc2ccccc2c1)NC(=O)OCc1ccccc1)C(=O)N[C@@H](Cc1c[nH]c2ccccc12)C(=O)O (stereo partly drawn) [(S)-2-{2-[(1-Benzyloxycarbonylamino-2-naphthalen-2-yl-ethyl)-hydroxy-phosphinoylmethyl]-4-methyl-pentanoylamino}-3-(1H-indol-3-yl)-propionic acid; Disodium salt] | 5.48 |
